Assay results reported in patent US11701361B2, “p110-delta inhibitors treat and prevent autoimmunity while sparing the ability to mount an immune response to exogenous immunogens” (THE REGENTS OF THE UNIVERSITY OF COLORADO, priority 2018, dated 2023).

Experiments:
Assay type in all cases: cell-based, mouse
BTK = test: phosphorylated signaling intermediaries after BCR stimulation: BTK; conditions: all doses of inhibitor (15, 60, 490 nM), preincubation
Protocol: (§1) Cells are then washed 2× in serum free IMDM, and stimulated with 5 μg/ml of F(ab′)2 rabbit anti-mouse anti-IgG (H&L; Invitrogen) or 10 μg/ml anti-CD3-biotin (BD Biosciences)+20 μg/ml streptavidin (Sigma-Aldrich) for 2 minutes. Signaling was stopped by addition of 20% PFA to a final concentration of 2%, incubated at 37° C. for 15 minutes and resuspended in 100% ice-cold MeOH (directly from −80° C.). Cells were then placed on ice for 30 minutes and placed at −20° C. for storage. For analysis, cells were stained with B220-BV786, CD4-BV711, CD8-BV421, and/or pAKT-Alexa Fluor 647 (BD Biosciences), pPLCγ-PE (BD Biosciences), pBTK-BV421 (BD Biosciences) pSyk/Zap70-PE (BD Biosciences) at room temperature for 1 hour. Cells were washed 3 times and samples were acquired in triplicate on an LSR Fortessa X-20 (BD) with analysis using FlowJo software.

CD4 T cells = test: calcium mobilization of CD4 T cells after TCR aggregation; conditions: 15 nM idelalisib, biotin-anti-CD3 and avidin
Protocol: For measurements of intracellular free calcium concentration ([Ca^2+]i), RBC-depleted single-cell suspended splenocytes were simultaneously stained with CD8-PE (BD Biosciences), CD4-APC (BioLegend) or B220-PE and loaded with Indo-1 acetoxymethyl (Molecular Probes), as described previously (Gauld, et al., Nat Immunol 6: 1160-1167). For analysis of ([Ca^2+]i), cells were suspended at 10×10^6 cells/ml in warm IMDM+2% FBS in a 500 ul volume. […] Mean relative ([Ca^2+]i) was monitored over time using an LSR Fortessa X-20 (BD) with analysis using FlowJo software.
Because a therapeutic effect of the inhibitor on VH125.NOD disease progression and survival was observed, reduction in autoantibody responses in PTEN^−/+×SHIP-1^−/+ cells, yet equivalent autoantibody responses by SHP-1^−/− and MD4 B cells in mice receiving 0.9375 mg/kg idelalisib-containing chow, we chose to focus our analysis on effects of this dose on T cell function. […] To analyze in vivo CD4 T cell responses, OT-II CD4 T cells were adoptively transferred into congenically mismatched recipients and immunized with OVA+P:IC as represented diagrammatically in FIG. 6C. […] The transferred OT-II cells that proliferated most underwent the greatest upregulation of CD44 (FIG. 6D).

AKT = test: phosphorylated signaling intermediaries after BCR stimulation: AKT; conditions: all doses of inhibitor (15, 60, 490 nM), preincubation
Protocol: as §1

## CC[C@H](Nc1ncnc2nc[nH]c12)c1nc2cccc(F)c2c(=O)n1-c1ccccc1 [idelalisib, 5-fluoro-3-phenyl-2-[(1S)-1-(7H-purin-6-ylamino)propyl]-4(3H)-quinazolinone]
BTK
  phosphorylation of BTK: significantly reduced
CD4 T cells
  calcium mobilization of CD4 T cells: failed to inhibit
AKT
  phosphorylation of AKT: significantly reduced
